Measurements taken from US20230028441A1, “NOVEL HETEROARYL-TRIAZOLE COMPOUNDS AS PESTICIDES” (Bayer Aktiengesellschaft, priority 2019, published 2023).

Assays:
Assay type in all cases: in vivo
[1] = test system: cattle tick larvae (Rhipicephalus microplus), strain Parkhurst, resistant against synthetic pyrethroids; assay: Rhipicephalus (Boophilus) microplus in-vitro contact test, larval cattle tick; details: 5 μg/cm^2 (=500 g/ha), after 48 hours, read-out: efficacy (larvae dead or moribund)
In short: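 Acetone solutions of compound were coated on glass tube walls (900 ppm giving 5 μg/cm^2) and dried. 20–50 pyrethroid-resistant Parkhurst larvae were held per tube at 27° C and 85% relative humidity; after 48 h negative geotaxis scored efficacy as percent larvae dead or moribund.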

[2] = test system: adult cat fleas (Ctenocephalides felis); assay: Ctenocephalides felis in-vitro contact test, adult cat flea; details: 5 μg/cm^2 (=500 g/ha), after 48 hours, read-out: efficacy (fleas dead or moribund)
In short: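 Acetone solutions were coated on glass tube walls, 900 ppm giving 5 μg/cm^2. After drying, 5-10 adult fleas per tube were held 48 h at room temperature. Fleas unable to climb away from a 45-50 °C heating plate within 5 min were scored dead or moribund, as % efficacy.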

[3] = test system: adult brown dog ticks (Rhipicephalus sanguineus); assay: Rhipicephalus sanguineus in-vitro contact test with adult brown dog ticks; details: after 48 hours, read-out: efficacy (ticks dead or moribund); for pest or weed control at 1 µg/cm2, 100 g/ha: 1 μg/cm^2 (=100 g/ha); for pest or weed control at 5 µg/cm2, 500 g/ha: 5 μg/cm^2 (=500 g/ha)
In short: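 Compound in acetone coated onto glass tube inner walls at 900 ppm, giving 5 μg/cm^2. Adult ticks (5-10 per tube) held at room temperature for 48 h, then placed on a 45-50° C. heating plate for up to 5 min. Ticks unable to climb away counted dead or moribund; efficacy given as % dead/moribund.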

[4] = test system: larvae of the banded cucumber beetle (Diabrotica balteata); assay: Diabrotica balteata spray test; details: 168 h, 100 g/ha (=32 μg/well), after 7 days, wheat seeds, read-out: efficacy (seedlings grown up)
In short: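 Germinated wheat seedlings (5 per well, agar plates) sprayed with compound in acetone/DMF diluted in water with 1000 ppm emulsifier, then infested with 10-20 larvae per unit. Efficacy scored after 7 days as % seedling growth relative to untreated, uninfested control (100% = normal growth, 0% = none).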

[5] = test system: southern root-knot nematode (Meloidogyne incognita); assay: Meloidogyne incognita test; details: 336 h, after 14 days, read-out: nematicidal activity (gall formation)
Method: Solvent: 125.0 parts by weight of acetone
To produce a suitable preparation of active compound, 1 part by weight of active compound is mixed with the stated amount of solvent, and the concentrate is diluted with water to the desired concentration.
Vessels are filled with sand, a solution of the active ingredient, a suspension containing eggs and larvae of the southern root-knot nematode (Meloidogyne incognita) and salad seeds. The salad seeds germinate and the seedlings grow. Galls develop in the roots.
After 14 days the nematicidal activity is determined on the basis of the percentage of gall formation. 100% means no galls were found and 0% means the number of galls found on the roots of the treated plants was equal to that in untreated control plants.

[6] = test system: green peach aphid (Myzus persicae); assay: Myzus persicae spray test; details: foliar, 120 h, 100 g/ha, after 5 days, Chinese cabbage leaf disks
In short: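 Chinese cabbage leaf disks carrying all instars of Myzus persicae were sprayed with compound. The formulation was acetone/dimethylformamide diluted in water with 1000 ppm alkylarylpolyglycol ether emulsifier. Percent mortality was scored after 5 days, with 100% meaning all aphids killed.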

[7] = test system: larvae of the southern green stink bug (Nezara viridula); assay: Nezara viridula spray test; details: in Hordeum vulgare, 96 h
In short: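 Barley plants infested with Nezara viridula larvae were sprayed with compound in acetone/dimethylformamide, diluted in water containing 1000 ppm alkylarylpolyglycol ether emulsifier. Mortality (%) was scored after 4 days; 100% means all stink bugs killed.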

[8] = test system: brown planthopper (Nilaparvata lugens); assay: Nilaparvata lugens spray test; details: in Oryza sativa, 96 h
In short: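 Rice plants (Oryza sativa) sprayed with compound in acetone/DMF diluted in water containing 1000 ppm alkylarylpolyglycol ether emulsifier, then infested with planthoppers. Mortality % scored after 4 days (100% = all killed, 0% = none killed).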

[9] = test system: fall armyworm larvae (Spodoptera frugiperda); assay: Spodoptera frugiperda spray test (maize leaf sections); details: 168 h
In short: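 Maize leaf sections were sprayed with compound formulated in acetone/DMF and diluted in water containing 1000 ppm emulsifier. Once dry, sections were infested with fall armyworm larvae. Mortality (%) was scored after 7 days.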

[10] = test system: caterpillars of the fall army worm (Spodoptera frugiperda); assay: Spodoptera frugiperda spray test (cotton leaves); details: 168 h
In short: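 Cotton leaves sprayed with compound in water/DMF with 1000 ppm alkylaryl polyglycol ether emulsifier, ammonium salt and/or penetration enhancer at 1000 ppm added if necessary, then infested with fall armyworm caterpillars. Mortality in % scored after 7 days; 100% means all caterpillars killed.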

[11] = test system: cattle ticks (Rhipicephalus microplus) strain Parkhurst, SP-resistant; assay: Rhipicephalus (Boophilus) microplus dip test; details: 100 ppm, egg deposition after 7 days
Method: Test animal: cattle ticks (Rhipicephalus microplus) strain Parkhurst, SP-resistant
Solvent: dimethyl sulfoxide
To produce a suitable preparation of active compound, 10 mg of active compound are dissolved in 0.5 mL solvent, and the concentrate is diluted with water to the desired concentration.
This compound solution is pipetted into tubes. 8-10 engorged, adult, female cattle ticks (Rhipicephalus microplus) are placed in perforated tubes. These tubes are immersed in the aqueous compound solution until the ticks are completely moistened. After the liquid has drained off, the ticks are transferred to a filter paper in a plastic tray and stored in a climate chamber.
After 7 days egg deposition of fertile eggs is monitored. Eggs where fertility is not visible are stored in a climate chamber till hatching after about 42 days. An efficacy of 100% means all eggs are infertile; 0% means all eggs are fertile.

[12] = test system: adult engorged female ticks (Rhipicephalus microplus); assay: Rhipicephalus (Boophilus) microplus injection test; details: 168 h, egg deposition after 7 days, read-out: efficacy (infertile eggs); for pest or weed control at 0.004 mg: 4 μg/animal; for pest or weed control at 0.02 mg: 20 μg/animal
In short: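 Compound was dissolved in DMSO at 10 mg per 0.5 mL and diluted with DMSO to the test concentration. Five engorged adult females received a 1 μL abdominal injection and were kept in a climate chamber. After 7 days, fertile egg deposition was scored, with unclear eggs held until hatching at about 42 days; 100% efficacy means all eggs were infertile.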

[13] = test system: adult unfed cat fleas (Ctenocephalides felis); assay: Ctenocephalides felis oral test; details: 48 h, 100 ppm in cattle blood, after 2 days
In short: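 About 20 adult unfed Ctenocephalides felis fed through parafilm on cattle blood dosed with compound (DMSO stock diluted in blood), blood chamber at 37°C, fleas at room temperature. Mortality (%) scored after 2 days; 100% means all fleas killed.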

[14] = test system: green peach aphid (Myzus persicae); assay: Myzus persicae oral test; details: 120 h
In short: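 Acetone stock (1 pbw compound/100 pbw solvent) diluted in water; mixed with sugar-supplemented IPL41 medium; parafilm-sealed; mixed aphid population sucks through film; mortality % read at 5 d.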

| Structure (SMILES) | pest or weed control at 5 µg/cm2 [1] [%] | pest or weed control at 5 µg/cm2 [2] [%] | pest or weed control at 1 µg/cm2, 100 g/ha [3] [%] | pest or weed control at 5 µg/cm2, 500 g/ha [3] [%] | pest or weed control at 32 µg/disc, 100 g/ha [4] [%] | pest or weed control at 20 ppm [5] [%] | mortality at 100 g/ha [6] [%] | mortality at 500 g/ha [7] [%] | mortality at 500 g/ha [8] [%] | mortality at 100 g/ha [9] [%] | mortality at 20 ppm [10] [%] | efficacy (infertile eggs) [11] [%] | pest or weed control at 0.004 mg [12] [%] | mortality at 100 ppm [13] [%] | mortality at 4 ppm [14] [%] | pest or weed control at 0.02 mg [12] [%] | mortality at 100 g/ha [7] [%] | mortality at 100 g/ha [8] [%] |
| --- | --- | --- | --- | --- | --- | --- | --- | --- | --- | --- | --- | --- | --- | --- | --- | --- | --- | --- |
| CNc1nc([C@H](C)NC(=O)c2cc(Br)cc(OC(F)(F)F)c2)n(-c2ncccn2)n1 [I-130] | 100 | 100 | 100 | 100 | 100 | 90 | 100 | 100 | 90 | 100 | 100 | – | – | – | – | – | – | – |
| C[C@H](NC(=O)c1cc(C(F)(F)F)cc(C(F)(F)F)c1)c1nc(N2CCOCC2)nn1-c1ncccn1 [I-145, N-[(1S)-1-(5-morpholino-2-pyrimidin-2-yl-1,2,4-triazol-3-yl)ethyl]-3,5-bis(trifluoromethyl)benzamide] | 100 | 80 | – | – | 100 | 100 | – | 100 | – | 100 | – | – | – | – | – | – | – | – |
| CC(NC(=O)c1cc(Cl)cc(C(F)(F)F)c1)c1nc(N)nn1-c1ncccn1 (racemic) [I-004, N-[1-(5-amino-2-pyrimidin-2-yl-1,2,4-triazol-3-yl)ethyl]-3-chloro-5-(trifluoromethyl)benzamide] | 90 | 100 | – | – | 100 | – | – | – | – | – | – | 80 | 100 | 100 | 100 | – | – | – |
| CNC(=O)c1nc(C(C)NC(=O)c2cc(Cl)cc(C(F)(F)F)c2)n(-c2ncccn2)n1 (stereo not shown) [I-077] | – | 90 | – | – | – | 90 | 90 | – | – | – | – | – | 100 | 100 | 100 | 100 | 100 | 90 |
| CC(NC(=O)c1cc(Cl)cc(C(F)(F)F)c1)c1nc(C(=O)NC2CC2)nn1-c1ccc(C#N)cn1 (stereo not shown) [I-078] | 90 | – | – | – | 100 | 90 | – | – | – | 100 | – | – | 100 | 100 | 90 | 100 | – | – |
| CC(NC(=O)c1cc(Cl)cc(C(F)(F)F)c1)c1nc(C(=O)NC2CC2)nn1-c1ncccn1 (single isomer, unassigned) [I-076, 5-[1-[[3-chloro-5-(trifluoromethyl)benzoyl]amino]ethyl]-N-cyclopropyl-1-pyrimidin-2-yl-1,2,4-triazole-3-carboxamide] | 90 | 100 | – | – | – | 90 | 90 | – | – | 100 | – | – | 100 | 100 | 100 | 100 | 100 | – |
| CC(NC(=O)c1cc(Cl)cc(S(C)(=O)=O)c1)c1nc(NC(=O)C2CC2)nn1-c1ccc(Cl)cn1 (stereo not shown) [I-013] | 90 | – | – | – | – | – | – | – | – | – | 100 | 80 | 100 | 100 | – | 100 | – | – |
| CNc1nc([C@H](C)NC(=O)c2cc(OC(F)(F)F)cc(C3CC3)c2)n(-c2ncccn2)n1 [I-132] | 100 | 100 | 100 | 100 | 100 | 90 | 90 | 100 | – | 100 | 100 | – | – | – | – | – | – | – |
| C=CC(=O)Nc1nc(C(C)NC(=O)c2cc(Cl)cc(C(F)(F)F)c2)n(-c2ccc(Cl)cn2)n1 (stereo not shown) [I-123] | 90 | 100 | – | – | 100 | 90 | – | 100 | – | 100 | – | – | – | – | – | – | – | – |
| C[C@H](NC(=O)c1cc(Br)cc(Br)c1)c1nc(N2CCOCC2)nn1-c1ncccn1 [I-144] | 100 | 90 | – | – | 100 | 90 | – | – | – | – | – | – | – | – | – | – | – | – |
| CC(NC(=O)c1cc(C(F)(F)F)cc(C(F)(F)F)c1)c1nc(N(C)C(=O)OC(C)(C)C)nn1-c1ncccn1 (racemic) [I-009, tert-butyl N-[5-[1-[[3,5-bis(trifluoromethyl)benzoyl]amino]ethyl]-1-pyrimidin-2-yl-1,2,4-triazol-3-yl]-N-methyl-carbamate] | 100 | 90 | 80 | 100 | 100 | – | – | – | – | 100 | – | 80 | 100 | 100 | 100 | – | 100 | – |
